{
  "source": "paper PMC4839630",
  "about": "“Investigation the Possibility of Using Peptides with a Helical Repeating Pattern of Hydro-Phobic and Hydrophilic Residues to Inhibit IL-10” (PLoS ONE, 2016)",
  "molecules": {"B1": {"name": "IL-10: Human IL10 purchased from ebioscience (Cat. No: BMS/346) (protein)", "chain": "SPGQGTQSENSCTHFPGNLPNMLRDLRDAFSRVKTFFQMKDQLDNLLLKESLLEDFKGYLGCQALSEMIQFYLEEVMPQAENQDPDIKAHVNSLGENLKTLRLRLRRCHRFLPCENKSKAVEQVKNAFNKLQEKGIYKAMSEFDIFINYIEAYMTMKIRN"}},
  "key": {"U937 cells": {"system": "U937 cells", "experiment": "7-AAD cell-viability assay", "format": "cell-based, human", "conditions": "two independent assays, flow cytometry", "description": "7-AAD assay: 7-AAD Viability Staining Solution was purchased from eBioscience (Cat. 00–6993). Briefly, 5 μL of 7-aad were added to 5×10^5 cells for 5 minutes, and 7-aad staining was measured by a BD Accuri flow cytometry.\nIn order for a peptide to be useful as potential drug candidates, its cytotoxicity has to be low. We evaluated the cytotoxicity of P1 and P2 using 7-AAD cell-viability assay (S5 Fig)."}, "IL-10": {"target": "IL-10 (Homo sapiens, UniProt P22301)", "experiment": "SPR binding to immobilised IL-10", "set-up": "purchased ebioscience BMS/346", "conditions": "SPR Biacore T100, CM5 chip, 1X PBS pH 7.4, 25°C, 10 μL/min; steady-state affinity analysis, three independent repeats"}, "IL-10R1": {"target": "T1, IL-10R1 (Homo sapiens, UniProt Q13651)", "T1 construct": "purchased Creative BioMart, USA IL10RA-212H", "T1 sequence (Q13651 22-578)": "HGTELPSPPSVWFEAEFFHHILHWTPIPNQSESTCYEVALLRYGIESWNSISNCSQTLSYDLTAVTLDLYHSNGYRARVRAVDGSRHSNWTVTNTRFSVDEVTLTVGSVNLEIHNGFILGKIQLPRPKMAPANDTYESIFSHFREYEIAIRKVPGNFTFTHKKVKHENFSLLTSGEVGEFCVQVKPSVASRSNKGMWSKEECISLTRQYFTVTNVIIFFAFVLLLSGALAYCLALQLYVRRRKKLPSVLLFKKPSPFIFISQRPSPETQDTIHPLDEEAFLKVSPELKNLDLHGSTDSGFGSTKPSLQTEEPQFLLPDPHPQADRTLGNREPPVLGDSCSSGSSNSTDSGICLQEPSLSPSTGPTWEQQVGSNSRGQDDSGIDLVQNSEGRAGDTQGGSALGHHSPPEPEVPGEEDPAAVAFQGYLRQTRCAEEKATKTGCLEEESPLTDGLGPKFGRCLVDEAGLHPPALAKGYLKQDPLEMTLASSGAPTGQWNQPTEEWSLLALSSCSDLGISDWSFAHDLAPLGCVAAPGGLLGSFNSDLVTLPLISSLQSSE", "experiment": "SPR binding to immobilised IL-10R1", "conditions": "SPR Biacore T100, CM5 chip, 1X PBS pH 7.4, 25°C, 10 μL/min; steady-state affinity analysis, three independent repeats"}, "IL-10R on U937 cells": {"system": "IL-10R on U937 cells", "experiment": "Surface staining of IL-10 receptor (PE anti-IL10R antibody) on U937 cells by flow cytometry", "format": "cell-based, human", "conditions": "U937 stimulated overnight with LPS (4×10^−3 μM); P1 4.5 μM, P2 4.1 μM, P3 5.6 μM, P4 4.2 μM; MFI by flow cytometry", "description": "Human macrophage cell line U937 was maintained in complete RPMI 1640 media (Gibco) supplemented with 10% heat inactivated FCS, 100 U of penicillin/ml and 100 μg of streptomycin/ml and were cultured at 37°C with 5% CO2.\nIn vitro stimulation of U937 cells: 2–5×10^5 of U937 cells were cultured in 1 mL of RPMI with 10% human serum containing 100 U of ampicillin and 100 U of streptomycin. The U937 cells were either unstimulated or stimulated with 4×10^−3 μM of LPS (Sigma, Cat. L3024-5MG) overnight, in the presence of different concentration of P1, P2 or P3 or anti-IL-10 (10 μg/mL, ~0.3 μM) or anti-IL-10R (10 μg/mL, ~0.1 μM) antibodies. Supernatants were collected and stored at -80°C till use.\nSurface staining of IL-10 receptor on U937 cell membrane: 2–5×10^5 of U937 cells were stained with PE conjugated anti-IL10R antibody for 30 minutes on ice, then washed with PBS with 2% of FCS and analysed with an Acuri flowcytometor (BD, USA) as described previously."}, "MC/9 cells": {"system": "MC/9 cells", "experiment": "MC/9 cell proliferation, MTT assay", "format": "cell-based, mouse", "conditions": "5×10^−5 μM IL-10, 1×10^4 cells, 48 h, media with 2×10^−5 μM IL4", "description": "Murine mast cell MC/9 cell line was purchased from ATCC, USA and cultured following the protocols in the product sheets. Briefly, MC/9 cells were cultured in complete RPMI 1640 media (Gibco) supplemented with 10% heat inactivated fetal calf serum (FCS), 100 U of penicillin/ml and 100 μg of streptomycin/ml and were cultured at 37°C with 5% CO2 and 5 ng of murine IL-4 or 1 ng of human IL-10 as recommended by ATCC, with or without adding P1, P2 or P3 respectively. MC/9 cell proliferation was determined by MTT assay (purchased from ATCC, USA) following the instruction of manufacturer.\nMouse mast cell line MC/9 growth is IL-10 dependent. We therefore investigated whether P1 or P2 is able to prevent IL-10 mediated MC/9 cell growth. MC/9 cells were cultured at different numbers for 48 hours and cell proliferation was measured by MTT assay, which measures the MC/9 cell proliferation. […] Thus, cell number of 1×10^4 was selected in the assay."}},
  "note": "Ends that are not written are not given here.",
  "data": [
    {"molecule": "FFRRFFRRFFRRFFRR [P2]", "values": [
      {"measurement": "cell death, 7-AAD (in words)", "setting": "U937 cells", "value": "there is no significant difference for cell death in the presence or absence of P1 or P2"}
    ]},
    {"molecule": "FFKKFFKKFFKKFFKK [P1]", "values": [
      {"measurement": "Kd", "setting": "IL-10", "value": "8.94 ± 0.37", "unit": "µM"},
      {"measurement": "Kd", "setting": "IL-10R1", "value": "16 ± 1.95", "unit": "µM"},
      {"measurement": "cell death, 7-AAD (in words)", "setting": "U937 cells", "value": "there is no significant difference for cell death in the presence or absence of P1 or P2"}
    ]},
    {"molecule": "Lipopolysaccharide [LPS]", "values": [
      {"measurement": "binding of PE anti-IL-10R antibody (clone 3F9) to IL-10R on U937 cells", "setting": "IL-10R on U937 cells", "value": "More antibody binds to IL-10R1 after LPS stimulation, and is positively correlated with the dose of LPS"}
    ]},
    {"molecule": "B1", "values": [
      {"measurement": "increase in MC/9 cell proliferation", "setting": "MC/9 cells", "value": "approximately 133%"}
    ]}
  ]
}
